What was measured:
Assay type in all cases: in vivo
Set-up in all cases: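 grade 0 to 5 of growth suppression where 5 is 90% or more and 0 below 10%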
[1] = test system: Abutilon theophrasti medicus; assay: Herbicidal effects in upland field soil treatment (Test Example 2); conditions: 1000 g active ingredient per hectare, 21st day after treatment, criteria of Table 138
Summary of the method: (§1)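 Herbicidal effect graded 21 days after treatment, plants kept in greenhouse. Treatment was a soil-surface spray of wettable powder in water, 1000 g a.i./ha in 1000 L/ha, applied after sowing and covering seeds.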

[2] = test system: Amaranthus viridis L.; assay: as above; conditions: 1000 g active ingredient per hectare, 21st day after treatment, criteria of Table 138
Summary of the method: as §1

[3] = test system: Monochoria vaginalis (Burm. f.) Presl var. plantaginea (Roxb.) Solms-Laub.; assay: Herbicidal effects in paddy field soil treatment (Test Example 1); conditions: paddy field soil treatment; 1000 g of the active ingredient per hectare; wettable powder added dropwise on water surface; 21st day after treatment
Summary of the method: (§2)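 Application rate 1000 g a.i./ha, delivered as water-diluted wettable powder onto flooded (3 cm) paddy soil one day after sowing. Plants kept in a greenhouse and evaluated for herbicidal effect on day 21 post-treatment.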

[4] = test system: Scirpus juncoides Roxb. var. ohwianus. T. Koyama; assay: as above; conditions: paddy field soil treatment; 1000 g of the active ingredient per hectare; wettable powder added dropwise on water surface; 21st day after treatment
Summary of the method: as §2

[5] = test system: Echinochloa oryzicola Vasing; assay: as above; conditions: paddy field soil treatment; 1000 g of the active ingredient per hectare; wettable powder added dropwise on water surface; 21st day after treatment
Summary of the method: as §2

[6] = test system: Abutilon theophrasti medicus; assay: Herbicidal effects in upland field foliar treatment (Test Example 3); conditions: 1000 g of the active ingredient per hectare, 14th day after the treatment, wettable powder, criteria of Table 138
Summary of the method: (§3)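 Foliar spray of diluted wettable powder, 1000 g a.i./ha in 1000 L/ha, onto two-week-old greenhouse-grown seedlings in upland field soil. Plants kept in the greenhouse, with effect rated on a criteria scale at day 14.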

[7] = test system: Echinochloa crus-galli (L.) P. Beauv. var. crus-galli; assay: as above; conditions: 1000 g of the active ingredient per hectare, 14th day after the treatment, wettable powder, criteria of Table 138
Summary of the method: as §3

[8] = test system: Amaranthus viridis L.; assay: as above; conditions: 1000 g of the active ingredient per hectare, 14th day after the treatment, wettable powder, criteria of Table 138
Summary of the method: as §3

Structure (SMILES) | herbicidal effect (index) on Abutilon theophrasti medicus [1] | herbicidal effect (index) on Amaranthus viridis L. [2] | Herbicidal effects index, Monochoria vaginalis (Burm. f.) Presl var. plantaginea (Roxb.) Solms-Laub. [3] | Herbicidal effects index, Scirpus juncoides Roxb. var. ohwianus. T. Koyama [4] | Herbicidal effects index, Echinochloa oryzicola Vasing [5] | herbicidal effects on Abutilon theophrasti medicus [6] | herbicidal effects on Echinochloa crus-galli (L.) P. Beauv. var. crus-galli [7] | herbicidal effects on Amaranthus viridis L. [8]
COc1ccc(-n2c(=O)c(C(=O)C3=C(O)C(C)(C)CCC3=O)nc3ccccc32)cc1 [II-63] | 5 | 5 | 5 | 5 | 5 | 4 | 5 | 5
COc1ccc(-n2c(=O)c(C(=O)C3=C(O)CC(C)(C)CC3=O)nc3ccccc32)cc1 [II-64] | 4 | 5 | 5 | 4 | 5 | 5 | 5 | 5
CCOc1cccc(-n2c(=O)c(C(=O)C3=C(O)CCCC3=O)nc3ccccc32)c1 [II-68] | 5 | 5 | 5 | 5 | 5 | 5 | 5 | 5
CCOc1ccc(-n2c(=O)c(C(=O)C3=C(O)CCCC3=O)nc3ccccc32)cc1 [II-69] | 4 | 5 | 5 | 5 | 5 | 5 | 5 | 5
CC(C)Oc1ccc(-n2c(=O)c(C(=O)C3=C(O)CCCC3=O)nc3ccccc32)cc1 [II-75] | 4 | 5 | 5 | 5 | 5 | 4 | 5 | 5
O=C1CCCC(O)=C1C(=O)c1nc2ccccc2n(-c2cccc(OC(F)F)c2)c1=O [II-90] | 5 | 5 | 5 | 5 | 5 | 5 | 5 | 5
O=C1CCCC(O)=C1C(=O)c1nc2ccccc2n(-c2ccc(OC(F)F)cc2)c1=O [II-95] | 5 | 5 | 5 | 5 | 5 | 5 | 5 | 5
O=C1CCCC(O)=C1C(=O)c1nc2ccccc2n(-c2cccc(OC(F)(F)F)c2)c1=O [II-101] | 5 | 5 | 5 | 5 | 5 | 5 | 5 | 5
CSc1ccc(-n2c(=O)c(C(=O)C3=C(O)CCCC3=O)nc3ccccc32)cc1 [II-122] | 5 | 5 | 5 | 5 | 5 | 4 | 5 | 5
CS(=O)(=O)c1ccc(-n2c(=O)c(C(=O)C3=C(O)CCCC3=O)nc3ccccc32)cc1 [II-125] | 5 | 5 | 5 | 5 | 5 | 5 | 5 | 5
O=C1CCCC=C1C(=O)c1nc2ccccc2n(-c2ccccc2[N+](=O)[O-])c1=O [II-129] | 5 | 5 | 5 | 5 | 5 | 5 | 5 | 5
O=C1CCCC(O)=C1C(=O)c1nc2ccccc2n(-c2cccc([N+](=O)[O-])c2)c1=O [II-130] | 5 | 5 | 5 | 5 | 5 | 5 | 5 | 5
O=C1CCCC(O)=C1C(=O)c1nc2ccccc2n(-c2ccc([N+](=O)[O-])cc2)c1=O [II-131] | 5 | 5 | 5 | 5 | 5 | 5 | 5 | 5
N#Cc1cccc(-n2c(=O)c(C(=O)C3=C(O)CCCC3=O)nc3ccccc32)c1 [II-136] | 5 | 5 | 5 | 5 | 5 | 5 | 5 | 5
N#Cc1ccc(-n2c(=O)c(C(=O)C3=C(O)CCCC3=O)nc3ccccc32)cc1 [II-137] | 5 | 5 | 5 | 5 | 5 | 5 | 5 | 5
COCc1ccc(-n2c(=O)c(C(=O)C3=C(O)CCCC3=O)nc3ccccc32)cc1 [II-149] | 4 | 5 | 5 | 5 | 5 | 5 | 5 | 5
COc1cc(-n2c(=O)c(C(=O)C3=C(O)CCCC3=O)nc3ccccc32)ccc1Cl [II-167] | 5 | 5 | 5 | 5 | 5 | 5 | 5 | 5
COc1cc(-n2c(=O)c(C(=O)C3=C(O)CCCC3=O)nc3ccccc32)ccc1C [II-168] | 5 | 5 | 5 | 5 | 5 | 5 | 4 | 5

From patent publication US8389523B2, “Substituted quinoxaline and an agrochemical composition thereof” (Kumiai Chemical Industry Co., Ltd., priority 2007, dated 2013)
